Converted amounts (≈) assume the structure as drawn.
What was measured:
Type in all cases: cell-based
[1] = test system: Enterococcus faecium DSM 20477 (ATCC 19434); test: Anti-bacterial bouillon microdilution assay (MIC), bacterium C; conditions: Enterococcus faecium DSM 20477, 24 h
Description: Selected compounds of the invention were tested in a bouillon microdilution assay method according to the DIN 58940 (www.din.de) guidelines for determination of susceptibility of bacterial strains with regard to cell growth inhibition. The assay method quantifies bacterial cell growth which corresponds to the turbidity of the liquid culture medium by photometric measurement carried out at 595 nm.
The method of MIC determination was performed according to DIN 58940-5. The volumina were adapted according to the microdilution method as described in DIN 58940-7 guideline.
Dependent on water solubility, compounds of the invention were dissolved either in water or ethanol in a concentration of 10 mg/ml. Subsequently, the stock was further diluted in water to a concentration of 512 μg/ml. The following serial dilutions (factor 2) were performed in water resulting in the following […] testing concentrations: 256 μg/ml, 128 μg/ml, 64 μg/ml, 32 μg/ml, 16 μg/ml, 8 μg/ml, 4 μg/ml, 2 μg/ml, 1 μg/ml, 0.5 μg/ml, 0.25 μg/ml and 0.125 μg/ml. Diluted compounds of the invention were transferred in 100 μl volume to the microtiter plate wells. […]
Before and after incubation, bacterial growth was determined by photometric analysis against a positive control containing growing bacteria without compound and a sterile/negative control containing only the medium.

[2] = test system: Bacteroides fragilis DSM 2151 (ATCC 25285); test: Anti-bacterial bouillon microdilution assay (MIC), bacterium E; conditions: anaerob, 24 h
Outline: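 Broth microdilution MIC per DIN 58940-5/-7. Twofold compound dilutions in water spanned 256 to 0.125 μg/ml in the test concentration series, with inocula of about 1×10^6 organisms/ml in strain-appropriate media. Growth was read as turbidity at 595 nm before and after incubation, against growth and sterile controls.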

[3] = test system: Aspergillus fumigatus 322-384; test: Anti-fungal broth microdilution (MIC), fungus B; conditions: filamentous protocol, more than 50% growth inhibition, 48 to 72 h
Outline: (§1)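 Broth microdilution followed NCCLS M27-A for the Candida yeasts and M38-A for the Aspergillus filamentous strains, testing 64 down to 0.125 μg/ml in twofold steps against a 10^6 CFU/ml inoculum. For Aspergillus, MIC was read after 48 to 72 h at 35 °C as the concentration giving >50% visible growth inhibition.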

[4] = test system: Candida albicans ATCC 90028; test: Anti-fungal broth microdilution (MIC), fungus E; conditions: yeast protocol, more than 80% inhibition, 48 h
Outline: as §1

[5] = test system: Candida parapsilosis ATCC 22019; test: Anti-fungal broth microdilution (MIC), fungus G; conditions: yeast protocol, more than 80% inhibition, 48 h
Outline: as §1

[6] = test system: Aspergillus fumigatus ATCC 204305; test: Anti-fungal broth microdilution (MIC), fungus A; conditions: filamentous protocol, more than 50% growth inhibition, 48 to 72 h
Outline: as §1

[7] = test system: Aspergillus fumigatus 040-200167; test: Anti-fungal broth microdilution (MIC), fungus C; conditions: filamentous protocol, more than 50% growth inhibition, 48 to 72 h
Outline: as §1

[8] = test system: Plasmodium falciparum (strain K1); test: In vitro drug activity assay, protozoon C; conditions: strain K1, 3[H]-hypoxanthine method
Description: In vitro activity of selected compounds of the invention against different protozoa was assessed as follows.
Plasmodium falciparum strain K1 and strain 3D7 parasites were cultured according to Trager W and Jensen J B (Science 1976, 193: 673-675). In vitro drug susceptibility assays with the test compounds were carried out according to Korsinczky M et al. (Antimicrobial agents and chemotherapy 2000, 44(8): 2100-2108) and Fivelman Q L et al. (Antimicrobial agents and chemotherapy 2004, 48(11): 4097-4102) using a ^3[H]-hypoxanthine radioisotope method. ED50 values were calculated with Msxlfit (IDBS).
The following protozoa were assessed: • A) Trypanosoma cruzi (Tulahuan-LACZ amstigotes in PEM, Lorente S O et al., Antimicrobial agents and chemotherapy 2004, 48(8): 2937-2950; Buckner et al., Infection and Immunity 1999, 67(1): 403-409; Buckner et al., Antimicrobial Agents and Chemotherapy 1996, 40(11): 2592-2597) • B) Trypanosoma brucei rhodesiense (strain STIB900, Lorente S O et al., Antimicrobial agents and chemotherapy 2004, 48(8): 2937-2950; Habtemariam S, BMC Pharmacology 2003, 3:6) • C) Plasmodium falciparum (strain K1, Korsinczky M et al., Antimicrobial agents and chemotherapy 2000, 44(8): 2100-2108; Thaitong S and Beale G H, Trans. R. Soc. Trop. Med. Hyg. 1981, 75: 271-273; Trager W and Jensen J B, Science 1976, 193: 673-675) • D) Plasmodium faiciparum (strain 3D7, Mu et al., PLoS Biology 2005, 3(10): e335)

[9] = test system: Candida albicans ATCC 10231; test: Anti-fungal broth microdilution (MIC), fungus D; conditions: yeast protocol, more than 80% inhibition, 48 h
Outline: as §1

[10] = test system: Cryptococcus neoformans H99; test: Anti-fungal broth microdilution (MIC), fungus I; conditions: yeast protocol, more than 80% inhibition, 48 h
Outline: (§2)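 Broth microdilution per NCCLS M27-A (yeasts) and M38-A (filamentous fungi), compounds tested from 64 down to 0.125 μg/ml against 10^6 CFU/ml inocula. For filamentous fungi, MIC read after 48 to 72 h at 35° C as the concentration giving more than 50% visible growth inhibition.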

[11] = test system: Cryptococcus gattii ATCC 32608; test: Anti-fungal broth microdilution (MIC), fungus J; conditions: yeast protocol, more than 80% inhibition, 48 h
Outline: as §2

[12] = test system: Candida albicans TS3; test: Anti-fungal broth microdilution (MIC), fungus F; conditions: yeast protocol, more than 80% inhibition, 48 h
Outline: as §1

CCCCCCCCCCCCCCCCOP(=O)([O-])OCC[N+](C)(C)C [miltefosine, hexadecylphosphocholine, reference compound]
MIC [1]: 32 µg/mL (≈ 78.5 µM)
MIC [2]: > 256 µg/mL

CCCCCCCCCCCCCCCCOP(=O)([O-])OCC[N+]1(C)CCCCC1 [Compound 2, Phosphoric acid hexadecyl ester 2-(1-methyl-piperidin-1-yl)-ethyl ester]
MIC, fungus B [3]: 2 µg/mL (≈ 4.47 µM)
MIC, fungus E [4]: 1 µg/mL (≈ 2.23 µM)
MIC, fungus G [5]: 2 µg/mL (≈ 4.47 µM)
MIC, fungus A [6]: 2 µg/mL (≈ 4.47 µM)
MIC, fungus C [7]: 6 µg/mL (≈ 13.4 µM)
ED50 (μg/mL), protozoon C [8]: 19.36 µg/mL (≈ 43.2 µM)
MIC, fungus D [9]: 1 µg/mL (≈ 2.23 µM)
MIC, fungus I [10]: 1 µg/mL (≈ 2.23 µM)
MIC, fungus J [11]: 0.75 µg/mL (≈ 1.68 µM)
MIC, fungus F [12]: 1.5 µg/mL (≈ 3.35 µM)

Reference: US20070167408A1, “NOVEL ALKYL PHOSPHOLIPID DERIVATIVES WITH REDUCED CYTOTOXICITY AND USES THEREOF” (ZENTARIS GmbH, priority 2005, published 2007)
